Experimental data taken from ChEMBL document CHEMBL1201862, “PubChem BioAssay data set” (2004).
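In this assay, cells in 96-well plates receive the compound at five concentrations for 48 hours. Endpoints are linearly interpolated between the surrounding concentrations. GI50 marks 50% less growth.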 The source made the active and inactive calls. Rule as the data show it: active = GI50 up to about 1.1 µM and inactive = higher.

How the values were obtained:
Experiment in all cases: NCI-60 cell line screen, 48 h
[1] = test system: SNB-75
[2] = test system: RPMI-8226
[3] = test system: SK-MEL-28
[4] = test system: ACHN
[5] = test system: IGROV-1
[6] = test system: OVCAR-3
[7] = test system: MOLT-4
[8] = test system: CAKI-1
[9] = test system: Malme-3M
[10] = test system: UACC-257
[11] = test system: SR
[12] = test system: K562
[13] = test system: HL-60
[14] = test system: SF-295
[15] = test system: SF-268
[16] = test system: SNB-19
[17] = test system: NCI-H522
[18] = test system: KM12
[19] = test system: MDA-N
[20] = test system: DU-145

Compound | GI50 [1] | GI50 [2] | GI50 [3] | GI50 [4] | GI50 [5] | GI50 [6] | GI50 [7] | GI50 [8] | GI50 [9] | GI50 [10] | GI50 [11] | GI50 [12] | GI50 [13] | GI50 [14] | GI50 [15] | GI50 [16] | GI50 [17] | GI50 [18] | GI50 [19] | GI50 [20]
O=C(/C=C\c1ccc(Cl)c(Cl)c1)c1ccc(Cl)cc1Cl | 17.1 µM (inactive) | 3.18 µM (inactive) | > 10 µM (inactive) | 17.3 µM (inactive) | 18 µM (inactive) | 18.2 µM (inactive) | 2.99 µM (inactive) | 27.3 µM (inactive) | 17.9 µM (inactive) | 19.9 µM (inactive) | 3.09 µM (inactive) | 6.11 µM (inactive) | 4.73 µM (inactive) | 18.6 µM (inactive) | 21.6 µM (inactive) | 12.4 µM (inactive) | 15.9 µM (inactive) | 8.38 µM (inactive) |  | 
C1CC2CN(CCCN3CCOCC3)C(C1)O2 (stereo not drawn) | > 100 µM (inactive) | > 100 µM (inactive) | > 100 µM (inactive) | > 100 µM (inactive) | > 100 µM (inactive) | > 100 µM (inactive) | > 100 µM (inactive) | > 100 µM (inactive) | > 100 µM (inactive) | > 100 µM (inactive) |  | > 100 µM (inactive) | > 100 µM (inactive) | > 100 µM (inactive) | > 100 µM (inactive) | > 100 µM (inactive) | > 100 µM (inactive) | > 100 µM (inactive) | > 100 µM (inactive) | > 100 µM (inactive)
O=C(OCc1ccc([N+](=O)[O-])cc1)N1c2ccccc2[C@@]23O[C@]24CCC[C@H]3C#C/C=C\C#C[C@H]14 |  |  | > 100 µM (inactive) | 78.9 µM (inactive) | > 100 µM (inactive) | > 100 µM (inactive) | 3.27 µM (inactive) | 37.4 µM (inactive) | 19.6 µM (inactive) | > 100 µM (inactive) |  | 88.1 µM (inactive) | 25 µM (inactive) | > 100 µM (inactive) | 38.6 µM (inactive) | > 100 µM (inactive) | 25.8 µM (inactive) | > 100 µM (inactive) | > 100 µM (inactive) | > 100 µM (inactive)
CSC12c3cc(C)n(-c4ccc([N+](=O)[O-])cc4)c3CC(C)(C)CN1C(=O)C2Oc1ccccc1 (stereo not drawn) | 10.6 µM (inactive) | 31.9 µM (inactive) | > 100 µM (inactive) | > 100 µM (inactive) | > 100 µM (inactive) | > 100 µM (inactive) | > 100 µM (inactive) | 18.5 µM (inactive) |  | 70 µM (inactive) | > 100 µM (inactive) | > 100 µM (inactive) |  | > 100 µM (inactive) |  | 80.9 µM (inactive) |  | 1.73 µM (inactive) | > 100 µM (inactive) | > 100 µM (inactive)
Cc1cc([N+](=O)[O-])c(C)c2c1[nH]c1ccc(/C(CCC3CCCC3)=N\N)cc12 | 22 µM (inactive) | 20.3 µM (inactive) | 16.9 µM (inactive) | 15.5 µM (inactive) |  | 20 µM (inactive) | 11.9 µM (inactive) | > 10 µM (inactive) | 17.5 µM (inactive) | 20 µM (inactive) | 19.6 µM (inactive) | 10.3 µM (inactive) | > 10 µM (inactive) | 18.8 µM (inactive) | 18.9 µM (inactive) | 17.7 µM (inactive) | 16.4 µM (inactive) | 16 µM (inactive) |  | 
CC(C)(C)N1CC2(CCCCC2)C1=O | > 100 µM (inactive) | > 100 µM (inactive) | > 100 µM (inactive) | > 100 µM (inactive) | > 100 µM (inactive) | > 100 µM (inactive) | > 100 µM (inactive) | > 100 µM (inactive) | > 100 µM (inactive) | > 100 µM (inactive) | > 100 µM (inactive) | > 100 µM (inactive) | > 100 µM (inactive) | > 100 µM (inactive) | 99.1 µM (inactive) | > 100 µM (inactive) | > 100 µM (inactive) | > 100 µM (inactive) |  | 
CN1CCN(c2ccc3nc(C4=C(O)C(=O)c5c(nc(CO)n5C)C4=O)[nH]c3n2)CC1 | 24.6 µM (inactive) | 93.8 µM (inactive) | > 100 µM (inactive) | > 100 µM (inactive) | > 100 µM (inactive) | > 100 µM (inactive) | 56.2 µM (inactive) | > 100 µM (inactive) | > 100 µM (inactive) | > 100 µM (inactive) |  | 59.8 µM (inactive) | > 100 µM (inactive) | > 100 µM (inactive) | > 100 µM (inactive) | > 100 µM (inactive) | > 100 µM (inactive) | > 100 µM (inactive) |  | > 100 µM (inactive)
COc1ccc(-n2cnc3c(N)nc(N)nc32)cc1 | 45.7 µM (inactive) | > 100 µM (inactive) | > 100 µM (inactive) | > 100 µM (inactive) | 56.9 µM (inactive) | > 100 µM (inactive) | 34 µM (inactive) | 76.7 µM (inactive) | > 100 µM (inactive) | > 100 µM (inactive) |  |  |  | > 100 µM (inactive) | > 100 µM (inactive) | > 100 µM (inactive) | > 100 µM (inactive) | 29.1 µM (inactive) | > 100 µM (inactive) | > 100 µM (inactive)
C=C1CC2OC2(C(=O)O[C@H]2CCC3[C@@H]4CCC5=CC(=O)CC[C@]5(C)C4CC[C@@]32C)C1=O (stereo partly drawn) | 16.9 µM (inactive) | 1.47 µM (inactive) | 8.87 µM (inactive) | 8.09 µM (inactive) | 10.9 µM (inactive) | 8.51 µM (inactive) | 1.49 µM (inactive) | 11.9 µM (inactive) | 6.56 µM (inactive) | 8.05 µM (inactive) | 0.805 µM (active) | 1.78 µM (inactive) | 0.83 µM (active) | 19.1 µM (inactive) | 8.41 µM (inactive) | 18.7 µM (inactive) | 2.47 µM (inactive) | 12.6 µM (inactive) |  | 17.8 µM (inactive)
O=C1CCCC(=O)N1n1c(Cc2ccc(Cl)cc2)n[nH]c1=O | > 100 µM (inactive) | > 100 µM (inactive) | > 100 µM (inactive) | > 100 µM (inactive) | > 100 µM (inactive) | > 100 µM (inactive) | > 100 µM (inactive) | > 100 µM (inactive) | > 100 µM (inactive) | > 100 µM (inactive) |  | > 100 µM (inactive) | > 100 µM (inactive) | > 100 µM (inactive) | > 100 µM (inactive) | > 100 µM (inactive) | > 100 µM (inactive) | > 100 µM (inactive) | > 100 µM (inactive) | > 100 µM (inactive)
OC[C@@H](O)[C@H](O)[C@H](O)[C@@H](O)C1SCCCS1 | > 100 µM (inactive) | > 100 µM (inactive) | > 100 µM (inactive) | > 100 µM (inactive) | > 100 µM (inactive) | > 100 µM (inactive) | > 100 µM (inactive) | > 100 µM (inactive) |  | > 100 µM (inactive) | 63.8 µM (inactive) |  |  | > 100 µM (inactive) | > 100 µM (inactive) | > 100 µM (inactive) |  | > 100 µM (inactive) | > 100 µM (inactive) | > 100 µM (inactive)
CCCc1cn2c(/C=N/NC(=N)N)c(-c3cccc([N+](=O)[O-])c3)nc2s1 | 1.56 µM (inactive) | 1.8 µM (inactive) | 1.43 µM (inactive) | 1.79 µM (inactive) | 1.92 µM (inactive) | 1.8 µM (inactive) | 1.23 µM (inactive) | 2.01 µM (inactive) | 1.3 µM (inactive) | 1.71 µM (inactive) | 2.09 µM (inactive) | 1.58 µM (inactive) | 2.09 µM (inactive) | 1.84 µM (inactive) | 2.25 µM (inactive) | 2.07 µM (inactive) | 1.98 µM (inactive) | 1.76 µM (inactive) |  | 1.74 µM (inactive)
COc1c(C)c2c(c(C)c1Cl)Oc1c(C=O)c(O)c(Cl)c(C)c1C(=O)O2 | 23.4 µM (inactive) | 32.6 µM (inactive) |  | 22.4 µM (inactive) | 31.6 µM (inactive) | 11.7 µM (inactive) | 20.6 µM (inactive) | 40.7 µM (inactive) | 23.2 µM (inactive) | 31.4 µM (inactive) | 27.5 µM (inactive) | 26.8 µM (inactive) | 22.3 µM (inactive) | 30.9 µM (inactive) | 27.8 µM (inactive) |  | 22.7 µM (inactive) | 31.8 µM (inactive) |  | 
N=c1c2c(-c3ccccc3)c[nH]c2ncn1N | > 100 µM (inactive) | > 100 µM (inactive) | > 100 µM (inactive) | > 100 µM (inactive) | > 100 µM (inactive) | > 100 µM (inactive) | > 100 µM (inactive) | > 100 µM (inactive) |  | > 100 µM (inactive) |  | > 100 µM (inactive) | > 100 µM (inactive) | > 100 µM (inactive) |  | > 100 µM (inactive) | > 100 µM (inactive) | > 100 µM (inactive) | > 100 µM (inactive) | 
CC(=O)O[C@H]1CC[C@@]2(C)C(CC[C@]3(C)C2CC[C@]2(C)Oc4c(C)cc(O)cc4C[C@@H]23)C1(C)C (stereo partly drawn) | 2.96 µM (inactive) | 2.5 µM (inactive) | 8.59 µM (inactive) | 5.46 µM (inactive) | 13.5 µM (inactive) | 11.7 µM (inactive) | 2.84 µM (inactive) | 8.99 µM (inactive) | 10.1 µM (inactive) | 8.47 µM (inactive) | 2.67 µM (inactive) | 3.96 µM (inactive) | 3.82 µM (inactive) | 2.17 µM (inactive) | 4.61 µM (inactive) | 4.24 µM (inactive) | 5.46 µM (inactive) | 6.71 µM (inactive) |  | 
